Experiments:
5-HT2A = 5-HT2A (Homo sapiens (Human), UniProt P28223); assay: 5-HT2A binding assay ([3H]-Ketanserin, HEK293 stable cell line membranes); details: Table F, class symbols
Description: H1 and 5-HT2A Binding Assay Protocol
(§1) The testing compounds were diluted with DMSO, starting at 2 mM, with 8-points and 5-fold serial dilutions. Ketanserin and Pyrilamine were diluted with DMSO, starting at 0.2 mM, with 8-points and 5-fold serial dilution.
(§2) 1 μl of a compounds of the present disclosure and either reference compound (Table C) were transferred to assay plates. 1 μl of 0.2 mM Ketanserin or Pyrilamine was transferred to an assay plate according to the plate map for nonspecific binding (Low control: LC). 1 μl of DMSO was transferred to an assay plate according to plate map for total binding (High control: HC).
(§3) 100 μlof membrane stocks were dispensed into the plates, following the plate map. 100 of radio ligand was added. The plates were sealed and shaken at 300 rpm at room temperature for 1 hour. The Unifilter-96 GF/C filter plates were soaked with 50 of 0.3% PEI per well for at least 0.5 hour at room temperature.
(§4) When the binding assays were complete, the reaction mixture was filtered through GF/C plates using Perkin Elmer Filtermate Harvester, and then each plate was washed 4 times with cold wash buffer. The filter plates were dried for 1 hour at 50 degrees. After drying, the bottom of the filter plate wells were sealed using Perkin Elmer Unifilter-96 backing seal tape. 50 μl of Perkin Elmer Microscint 20 cocktail was added. The top of the filter plates were sealed with Perkin Elmer TopSeal-A sealing film.
(§5) ^3H trapped on filters were counted using Perkin Elmer MicroBeta2 Reader. Inhibition constants were calculated using the following equation:
(§6) [formula] The data was analyzed using Prism 5. The model used was “log(inhibitor) vs. response—Variable slope” to fit the data and calculate IC50. The IC50 was then converted to Ki using following equation: Ki=IC50/(1+L/Kd). L is the radioligand concentration in the reaction system; Kd is the affinity of radioligand to the receptor.

male Wistar rats = assay: SCORE EEG/EMG sleep-wake monitoring: sleep continuity, number of arousals, depth of sleep; assay type: in vivo, rat; details: 30 mg/kg PO
Description: Example 30. Experimental Details and Methods for Determining Sleep Continuity, Number of Arousals, and Depth of Sleep
Treatment detail plots (see, e.g., FIGS. 1-10) depict pre- and post-treatment time series plot ±30 hours before and after treatment at CT-18 (6-hours after lights-off) or pre- and post-treatment time series plots 29 hr before and 31 hr after treatments at CT-5 (5-hours after lights-on). Treatment occurred at the beginning of the hour marked by a triangle on the abscissa of the plot. Variables were computed in hourly bins.
All data were plotted as group mean±SEM (see, e.g., FIGS. 1-10). The gray shaded area encompasses the vehicle treatment mean±SEM. Along the x-axis, time of treatment is marked by a triangle unless noted otherwise. Along the x-axis, light/dark bars indicate lights on/off.
Adult, male Wistar rats (approximately 270 g at time of surgery, Charles River Laboratories) were administered dexmedetomidine 25 μg/kg and anesthetized (2% isoflourane in 95/5 oxygen, to effect) and surgically prepared with a cranial implant that permitted chronic electro-encephalogram (EEG) and electromyogram (EMG) recording. Body temperature and locomotor activity were monitored via a miniature transmitter (Minimitter Series PDT4000 E-Mitter, Bend, Oreg.) surgically placed in the abdomen during the same anesthetic event when the cranial portion was implanted. The cranial implant consisted of miniature stainless steel screws (2 frontal [+3.9 AP from bregma, 2.0 ML], 2 occipital [−6.4 AP, 5.5 ML], and 1 ground placed sagittaly and posterior to lambda) for EEG recording. Two Teflon-coated multi-strand stainless steel wires were positioned under the nuchal trapezoid muscles for EMG recording. All leads were soldered to a miniature connector (Omnetics, Minneapolis, Minn.) and gas sterilized with ethylene oxide prior to surgery. The implant assembly was affixed to the skull by the combination of the EEG recording screws, cyanoacrylate applied between the hermetically sealed implant connector and skull, and a UV-curing dental acrylic. An analgesic (meloxicam 1 mg/kg IP) was administered 1 day prior to surgery and daily for 2 days post-surgery. Neosporin with lidocaine was applied topically to the peri-implant margin. At least three weeks were allowed for surgical recovery prior to any data collection.
Rats were housed individually within specially modified Innovive® cages equipped with a custom-built ultra-low-torque slip-ring commutator and a customized Innovive® polycarbonate cage-top. These cages were located on shelves of a modified stainless steel animal rack that was pre-wired for physiological and behavioral data collection. Food and water were available ad libitum and the ambient temperature was 22±1° C. A 24-hr light-dark cycle (LD 12:12) was maintained throughout the study using LED lighting strips. Light intensity averaged 35 lux at mid-level inside the cage. Relative humidity averaged 50% approximately. Animals were undisturbed for two days before and after each treatment.
Sleep and wakefulness were determined using SCORE™—a Linux and Windows-10 real-time computer-based sleep-wake and physiological monitoring system. Validation of the SCORE™ sleep stage identification algorithm in rodents and the system's utility in pre-clinical drug discovery and evaluation have been previously described (Edgar et al. Psychopharmacology 1991, 105, 374; Gilmour et al., Neuropharmacology 2012, 64, 224; McCarthy et al., 2016, Neuropharmacology 108, 415; Olive et al., J. Pharmacology &Experimental Therapeutics 1998 285, 1073; Phillips et al, Neuropharmacology 2012, 62, 1359; Seidel et al. J Pharmacology &Experimental Therapeutics 1995, 275, 263; Van Gelder et al. Sleep 1991, 14, 48). […]

H1 = H1 (Homo sapiens (Human), UniProt P35367); assay: H1 binding assay ([3H]pyrilamine, HEK293 stable cell line membranes); details: Table E, class symbols
Description: Example 25. H1 and 5-HT2A Binding Assay Protocol
as §1, §2, §3, §4, §5, §6

Sequence of H1 (P35367 whole entry): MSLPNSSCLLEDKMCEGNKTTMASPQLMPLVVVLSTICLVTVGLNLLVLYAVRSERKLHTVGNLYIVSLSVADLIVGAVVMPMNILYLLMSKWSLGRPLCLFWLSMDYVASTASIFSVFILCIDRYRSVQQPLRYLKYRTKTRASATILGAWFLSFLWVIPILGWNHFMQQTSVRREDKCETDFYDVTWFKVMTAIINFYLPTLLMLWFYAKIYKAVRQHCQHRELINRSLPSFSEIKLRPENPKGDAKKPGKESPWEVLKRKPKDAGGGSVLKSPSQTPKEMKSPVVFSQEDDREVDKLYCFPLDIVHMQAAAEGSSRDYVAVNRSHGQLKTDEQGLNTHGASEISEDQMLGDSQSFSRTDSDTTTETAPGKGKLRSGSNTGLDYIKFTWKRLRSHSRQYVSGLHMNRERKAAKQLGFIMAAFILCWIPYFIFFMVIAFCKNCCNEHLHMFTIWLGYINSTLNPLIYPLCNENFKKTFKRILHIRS
Sequence of 5-HT2A (P28223 whole entry, species assumed): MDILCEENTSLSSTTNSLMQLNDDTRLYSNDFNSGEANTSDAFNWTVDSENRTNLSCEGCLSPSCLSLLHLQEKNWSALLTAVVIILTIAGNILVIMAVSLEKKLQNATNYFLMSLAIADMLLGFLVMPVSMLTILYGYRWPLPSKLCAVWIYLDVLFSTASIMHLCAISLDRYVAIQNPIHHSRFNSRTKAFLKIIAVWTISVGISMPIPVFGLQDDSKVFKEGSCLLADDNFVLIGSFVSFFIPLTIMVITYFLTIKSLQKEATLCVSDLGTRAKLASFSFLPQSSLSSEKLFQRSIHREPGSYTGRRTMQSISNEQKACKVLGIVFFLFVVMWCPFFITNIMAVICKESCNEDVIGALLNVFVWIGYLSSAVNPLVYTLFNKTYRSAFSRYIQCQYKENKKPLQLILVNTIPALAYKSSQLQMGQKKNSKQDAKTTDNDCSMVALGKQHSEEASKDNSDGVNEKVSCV

## Cc1ccc2c(c1)Oc1cc(C)ccc1C(N1CCN(CC(C)(C)C(=O)O)CC1)=N2 [Compound No. 7, 3-(4-(3,7-dimethyldibenzo[b,f][1,4]oxazepin-11-yl)piperazin-1-yl)-2,2-dimethylpropanoic acid]
5-HT2A
  Ki: 0.001 to 0.025 µM
Male Wistar rats; CT-5, male Wistar rats
  reductions in the number of transitions from sleep to wake per hour relative to controls: 40-50%
Male Wistar rats; CT-18, male Wistar rats
  increase in sleep bout-length per hour relative to vehicle control: 3-4 fold
  normalized EEG delta power (slow wave activity) during nonREM sleep: increases in EEG slow wave activity in nonREM sleep
H1
  Ki: > 0.05 µM

From patent US11046651B2, “Piperazine substituted azapine derivatives and uses thereof” (Alairion, Inc., priority 2019, dated 2021)
